Test results from US12545665B2, “Crystal form of 6-(cyclopropanecarboxamido)-4-((2-methoxy-3-(1-methyl-1H-1,2,4-triazol-3-yl)phenyl)amino)-n-(methyl-d3) pyridazine-3-carboxamide” (Bristol-Myers Squibb Company, priority 2017, dated 2026).

Key:
Type in all cases: physicochemical
[1] = Physical stability on storage, characterized by DSC, TGA and PXRD; settings: samples stored for 4 weeks at different conditions of temperature and humidity, TGA, PXRD
Method: X-ray powder diffraction (PXRD) data were obtained using a Bruker C2 GADDS with Vantec-500 detector. The radiation was Cu Kα (40 KV, 40 mA). The sample-detector distance was […]. Incident optics include Goebel mirror and 0.3 mm collimator. Powder samples were placed in sealed glass capillaries of 1 mm or less in diameter; the capillary was rotated during data collection. Data were collected for 2≤2θ≤35° with a sample exposure time of at least 1000 seconds. The resulting two-dimensional diffraction arcs were integrated to create a traditional 1-dimensional PXRD pattern with a step size of 0.05 degrees 2θ in the range of ˜2 to ˜30 degrees 2θ.
Differential scanning calorimetry (DSC) experiments were performed in a TA Instruments™ model Q2000. The sample (about 2-6 mg) was weighed in an aluminum pan and recorded accurately recorded to a hundredth of a milligram, and transferred to the DSC. […] Data were collected between room temperature and 300° C. at 10° C./min heating rate. The plot was made with the endothermic peaks pointing down.
Thermal gravimetric analysis (TGA) experiments were performed in a TA Instruments™ model Q5000. The sample (about 10-30 mg) was placed in a platinum pan previously tared. […] The furnace was purged with nitrogen gas at 100 mL/min. Data were collected between room temperature and 300° C. at 10° C./min heating rate.

[2] = Chemical stability (% Assay) of micronized Form A stored at different temperature and humidity conditions
Method: Samples of micronized Form A of Compound (I) were stored at different conditions of temperature and humidity for 4 weeks. The physical stability, characterized by DSC, TGA, and PXRD, were measured at 2 and 4 weeks.

[3] = Moisture-sorption isotherm (VTI)
Method: Form A of Compound (I) is non-hygroscopic with less than 0.1 weight % gain between 25 to 75% relative humidity at 25° C.
Moisture-sorption isotherms were collected in a TA Instrument VTI-SA+ Vapor Sorption Analyzer using approximately 10 mg of sample. The sample was dried at 60° C. until the loss rate of 0.0005 wt %/min was obtained for 10 minutes. The sample was tested at 25° C. and 3 or 4, 5, 15, 25, 35, 45, 50, 65, 75, 85, and 95% relative humidity (RH). Equilibration at each relative humidity was reached when the rate of 0.0003 wt %/min for 35 minutes was achieved or a maximum of 600 minutes.

[4] = at the tested temperature and humidity conditions

% Assay ([2]; High Intensity Light/UV, 2 weeks): 99.3%
% Assay ([2]; High Intensity Light/UV, 4 weeks): 99.2%
Impurity profiles [2, 4]: remain unchanged
Change in chemical stability ([2]; samples of Table 2, stored up to 4 weeks): no measure change in chemical stability
% Assay ([2]; stored at 5° C. (control), 2 weeks): 99.2%
% Assay ([2]; stored at 5° C. (control), 4 weeks): 99.2%
% Assay ([2]; stored at 25° C./60% relative humidity (closed), 2 weeks): 99.2%
% Assay ([2]; stored at 25° C./60% relative humidity (closed), 4 weeks): 99.2%
% Assay ([2]; stored at 40° C./75% relative humidity (open), 2 weeks): 99.2%
% Assay ([2]; stored at 40° C./75% relative humidity (open), 4 weeks): 99.2%
% Assay ([2]; stored at 50° C., 2 weeks): 99.2%
% Assay ([2]; stored at 50° C., 4 weeks): 99.2%
Weight gain ([3]; between 25 to 75% relative humidity at 25° C.): less than 0.1 weight %
Hygroscopicity ([3]; moisture sorption isotherm at 25° C.): non-hygroscopic
Structure (SMILES): [2H]C([2H])([2H])NC(=O)c1nnc(NC(=O)C2CC2)cc1Nc1cccc(-c2ncn(C)n2)c1OC [Form A of Compound (I), 6-(cyclopropanecarboxamido)-4-((2-methoxy-3-(1-methyl-1H-1,2,4-triazol-3-yl)phenyl)amino)-N-(methyl-d3)pyridazine-3-carboxamide]
Change in physical form [1]: No change in the physical form was detected
Physical or chemical degradation [2, 4]: no significant physical or chemical degradation
